Reference: PubChem BioAssay AID1205 (EPA DSSTox, 2008)
Activity calls are given as the source filed them.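 Rule for the calls: active = tumour findings in long-term animal cancer tests in more than one sex, species or organ; inactive = no tumour finding and more than one negative test.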

Test: DSSTox (CPDBAS) Carcinogenic Potency Database Summary MultiCellCall Results
Settings: animal carcinogenicity bioassays, multi-cell call summary
Summary of the method: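 Summary call drawn from chronic long-term cancer bioassays in rats, mice, hamsters, dogs and nonhuman primates, using the most positive result per sex-species. Score: multispecies=50, multisex=30, multisite=20, summed for combinations.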

| Compound | outcome |
| --- | --- |
| Cc1cc(OC(=O)N(C)C)n(C(C)C)n1 | inactive; multisex inactive |
| S=c1[nH]c2ccccc2s1 | active; multisite active; multisex active |
| CC(=O)OC[C@H]1O[C@H](O[C@]2(COC(C)=O)O[C@H](COC(=O)C(C)C)[C@@H](OC(=O)C(C)C)[C@@H]2OC(=O)C(C)C)[C@H](OC(=O)C(C)C)[C@@H](OC(=O)C(C)C)[C@@H]1OC(=O)C(C)C | inactive; multisex inactive; multispecies inactive |
| CCOC(=O)C1OC1(C)c1ccccc1 (stereo unspecified) | inactive; multisex inactive |
| CC(=O)Nc1ccc(N=Nc2cc(C)ccc2O)cc1 | active; multisex active; multispecies active |
| CC(Oc1ccc(Cl)cc1Cl)C(=O)O (stereo unspecified) | inactive; multisex inactive |
| O=C1C(Cl)=C(Cl)C(=O)c2ccccc21 | inactive; multisex inactive |
| CCSCCC(N)C(=O)O (stereo unspecified) | active; multisex active; multispecies active |
| CC(O)CN(N=O)C(=O)NCCCl (stereo unspecified) | active; multisex active |
| CCn1nc(C)c2c1C(c1ccccc1)=NCC(=O)N2 | active; multisex active |
| NNCCc1ccccc1 | active; multisite active |
| Nc1ccc(Nc2ccccc2)cc1 | inactive; multisex inactive; multispecies inactive |
| COc1cc2c(cc1N)oc1ccccc12 | active; multisite active; multisex active |
| CC(Oc1cc(Cl)ccc1Cl)C(=O)O (stereo unspecified) | inactive; multisex inactive |
| c1ccc2sc(SNC3CCCCC3)nc2c1 | inactive; multisex inactive |
| C=CCc1ccc(OC)c(OC)c1 | active; multisite active; multisex active; multispecies active |
| COc1c2occc2cc2ccc(=O)oc12 | active; multisite active |
| O=C(O)Cc1c[nH]c2ccccc12 | inactive; multisex inactive |
| CCN(CC)C(=O)/C(Cl)=C(\C)OP(=O)(OC)OC | inactive; multisex inactive |
| COS(C)(=O)=O | active; multisite active |
| O=C(Nc1ccc2c(c1)Cc1ccccc1-2)C(F)(F)F | active; multisite active |
| CC(=O)NN | active; multisex active |

| Compound | outcome |
| --- | --- |
| Nc1cc(Cl)c(-c2cc(Cl)c(N)cc2Cl)cc1Cl | inactive; multisex inactive; multispecies inactive |
| Cc1cc(O)c2c(c1)C(=O)c1cc(O)cc(O)c1C2=O | inactive; multisex inactive; multispecies inactive |
| CC[C@H]1OC(=O)[C@H](C)[C@@H](O[C@H]2C[C@@](C)(OC)[C@@H](O)[C@H](C)O2)[C@H](C)[C@@H](O[C@@H]2O[C@H](C)C[C@H](N(C)C)[C@H]2O)[C@](C)(O)C[C@@H](C)C(=O)[C@H](C)[C@@H](O)[C@]1(C)O | inactive; multisex inactive; multispecies inactive |
| F | inactive; multisex inactive; multispecies inactive |
| Cn1nc(CO)nc1NCCCOc1cccc(CN2CCCCC2)c1 | active; multisex active |
| O=S(=O)(O)c1ccc(N=Nc2cc(S(=O)(=O)O)c3ccccc3c2O)c2ccccc12 | inactive; multisex inactive; multispecies inactive |
| CN(Cc1cnc2nc(N)nc(N)c2n1)c1ccc(C(=O)N[C@@H](CCC(=O)O)C(=O)O)cc1 | inactive; multisex inactive; multispecies inactive |
| C[C@]12C=CC(=O)C=C1CC[C@@H]1[C@@H]2C(=O)C[C@@]2(C)[C@H]1CC[C@]2(O)C(=O)CO | inactive; multisex inactive |
| ClCc1ccccn1 | inactive; multisex inactive; multispecies inactive |
| CCOC(=O)CC(SP(=S)(OC)OC)C(=O)OCC (stereo unspecified) | inactive; multisex inactive; multispecies inactive |
| Cn1cc(C(=O)O)c(=O)c2ccc(/C=C/c3ccc([N+](=O)[O-])o3)nc21 | active; multisite active |
| O=[N+]([O-])c1ccc2c(c1)Cc1ccccc1-2 | active; multisite active |
| Cc1ccc2c(-c3ccccc3)nc(=O)n(C(C)C)c2c1 | inactive; multisex inactive |
| Brc1cc(Br)c(-c2cc(Br)c(Br)cc2Br)cc1Br | active; multisex active; multispecies active |
| COP(=S)(OC)Oc1ccc(SC)c(C)c1 | inactive; multisex inactive; multispecies inactive |
| C/C=C/C=C/C(=O)O | inactive; multisex inactive; multispecies inactive |
| O=C(O)COc1cc(Cl)c(Cl)cc1Cl | inactive; multisex inactive; multispecies inactive |
| c1ccc2sc(SN3CCOCC3)nc2c1 | inactive; multisex inactive |
| O=C(O)/C=C/c1ccc(O)c(O)c1 | active; multisite active; multisex active; multispecies active |
| C#C[C@]1(OC(C)=O)CC[C@H]2[C@@H]3CCC4=CC(=O)CC[C@@H]4[C@H]3CC[C@@]21C | active; multisite active; multispecies active |
| Nc1c(Cl)c(Cl)nc(C(=O)O)c1Cl | inactive; multisex inactive; multispecies inactive |
| c1ccncc1 | active; multisite active; multisex active; multispecies active |

| Compound | outcome |
| --- | --- |
| COc1ccc(C(Cl)=C(c2ccc(OC)cc2)c2ccc(OC)cc2)cc1 | inactive; multisex inactive |
| [Cl-].[Cl-].[Cl-].[Fe+3] | inactive; multisex inactive |
| CN(N=O)c1ncnc2c1ncn2[C@@H]1O[C@H](CO)[C@@H](O)[C@H]1O | active; multisite active; multisex active |
| c1ccc2occc2c1 | active; multisite active; multisex active; multispecies active |
| CCN=[N+](C)[O-] | active; multisite active |
| C=C1C[C@@]23CC[C@H]4[C@@](C)(CCC[C@@]4(C)C(=O)O[C@@H]4O[C@H](CO)[C@@H](O)[C@H](O)[C@H]4O)[C@@H]2CC[C@]1(O[C@@H]1O[C@H](CO)[C@@H](O)[C@H](O)[C@H]1O[C@@H]1O[C@H](CO)[C@@H](O)[C@H](O)[C@H]1O)C3 | inactive; multisex inactive |
| O=[N+]([O-])c1cc([N+](=O)[O-])c(Cl)c(Cl)c1Cl | inactive; multisex inactive |
| O=[N+]([O-])c1cc([As](=O)(O)O)ccc1O | inactive; multisex inactive; multispecies inactive |
| COc1ccc2nc(S(=O)Cc3ncc(C)c(OC)c3C)[nH]c2c1 (stereo unspecified) | active; multisex active |
| CNC[C@H](O)c1cccc(O)c1 | inactive; multisex inactive; multispecies inactive |
| OCCBr | active; multisex active |
| CC1SC(C)N(N=O)C(C)S1 (stereo unspecified) | active; multisite active |
| CC(N)=O | active; multisite active; multisex active; multispecies active |
| O=C1c2cccc(O)c2C(=O)c2c(O)cccc21 | active; multisite active; multispecies active |
| P | inactive; multisex inactive |
| Nc1nc(N)nc(-c2ccccc2)n1 | inactive; multisex inactive; multispecies inactive |
| O=C(O)CN(CCN(CC(=O)O)CC(=O)O)CC(=O)O | inactive; multisex inactive; multispecies inactive |
| C[C@H](CCC(=O)O)[C@H]1CC[C@H]2[C@@H]3CC[C@@H]4C[C@H](O)CC[C@]4(C)[C@H]3CC[C@]12C | inactive; multisex inactive; multispecies inactive |
| CC(N)=S | active; multisex active; multispecies active |
| Nc1c(Br)cc(Br)c2c1C(=O)c1ccccc1C2=O | active; multisite active; multisex active; multispecies active |
| C1CCOC1 | active; multisite active; multisex active; multispecies active |
| c1ccc(Nc2ccc(Nc3ccccc3)cc2)cc1 | inactive; multisex inactive; multispecies inactive |
